According to US12433835B2, “Cosmetic composition and treatment for treating skin sagging” (Sederma, priority 2020, dated 2025):

System: Fibroblasts
Assay: Contraction of collagen lattice by MGO-stressed fibroblasts
Format: cell-based
Conditions: MGO contact 2 days, with or without extract at 0.5%; control without MGO = 100%; n=3
From the text: The contraction function of fibroblasts is important for ensuring a good elasticity to the skin. The application on fibroblasts of the glycating substance (MGO: methylglyoxal) allows to mimic in accelerate the loss of contractility of fibroblasts occurring during aging. Fibroblasts were brought into contact with the MGO for 2 days, in nontoxic quantity, with or without the extract according to the invention. After this contact, the cells were included in a collagen gel to form a dermis equivalent called lattice. Fibroblasts anchor themselves to the collagens and begin to contract the gel like they do in the skin. This contraction was followed after 16 h and measured using an ImageQuant LAS4000 imager by following the modification on the gel surface.

## CC(=O)C=O [MGO, methylglyoxal]
  Gel contraction at 16 h (%): 59.9%
